Results published in patent US7282595B2, “Antitumor benzoylsulfonamides” (Eli Lilly and Company, priority 2003, dated 2007).

These compounds were tested on Human HCT116 colon carcinoma cells (assay: HCT116 Colon Carcinoma Cell Growth Inhibition). Details: 72 hr exposure, WST-1 growth fraction.
Format: cell-based
Method: HCT116 Colon Carcinoma Cell Growth Inhibition
Human HCT116 colon carcinoma cells were grown monolayer culture in RPMI 1640 medium supplemented with 10% fetal bovine serum and 1% penicillin-streptomycin (GibcoBRL, Grand Island, N.Y.). HCT116 cells in exponential growth phase were exposed to various concentrations of the test compounds at 37° C. for 72 hr in 5% carbon dioxide/air. After exposure to the agent, the cells were washed with 0.9% phosphate buffered saline. Growth inhibition was determined using WST-1 cell proliferation reagent as described above. The results are expressed as the growth fraction of treated cells compared with control cultures. Representative compounds of the present invention were tested for efficacy against the human colon HCT116 tumor cells.

IC50 | Compound
4.1 µM | O=C(NS(=O)(=O)c1ccc2c(c1)OCCO2)c1ccc(Cl)cc1Cl [Example 23, N-[2,4-dichlorobenzoyl]-2,3-dihydrobenzo[1,4]dioxane-6-sulfonamide]
40 µM | N-[2,4-dichlorobenzoyl]-tetrahydrobenzofuran-5-sulfonamide [Example 24]

Same assay, conditions: Homo sapiens, HCT-116, 72 hr exposure, WST-1 growth fraction

Compound | IC50
O=C(NS(=O)(=O)c1ccc2c(c1)CCC2)c1ccc(Cl)cc1Cl [Example 28, N-[2,4-dichlorobenzoyl]-indane-5-sulfonamide] | 3.2 µM
Cn1c(S(=O)(=O)NC(=O)c2ccc(Cl)cc2Cl)cc2ccccc21 [Example 31, N-[2,4-dichlorobenzoyl]-1-methyl-indole-2-sulfonamide] | 4.6 µM
Cc1cc(Cl)ccc1C(=O)NS(=O)(=O)c1ccc2c(c1)CCO2 [Example 1, N-[4-chloro-2-methylbenzoyl]-2,3-dihydrobenzofuran-5-sulfonamide] | 9.6 µM
O=C(NS(=O)(=O)c1ccc2c(c1)OCO2)c1ccc(Br)cc1Cl [Example 7, N-[4-bromo-2-chlorobenzoyl]-benzo[1,3]dioxole-5-sulfonamide] | 13.9 µM
CN1CCc2ccc(S(=O)(=O)NC(=O)c3ccc(Cl)cc3Cl)cc21 [Example 26, N-[2,4-dichlorobenzoyl]-1-methyl-2,3-dihydro-1H-indole-6-sulfonamide] | 10 µM
Cc1cc(Cl)ccc1C(=O)NS(=O)(=O)c1ccc2c(c1)OCO2 [Example 3, N-[4-chloro-2-methylbenzoyl]-benzo[1,3]dioxole-5-sulfonamide] | 6.4 µM
O=C(NS(=O)(=O)c1cc2ccccc2o1)c1ccc(Cl)cc1Cl [Example 17, N-[2,4-dichlorobenzoyl]-benzofuran-2-sulfonamide] | 19.8 µM
O=C(NS(=O)(=O)c1ccc2ncsc2c1)c1ccc(Cl)cc1Cl [Example 18, N-[2,4-dichlorobenzoyl]-benzothiazole-6-sulfonamide] | 14.2 µM

The next lines start with the values.

IC50 | Compound
3.9 µM | O=C(NS(=O)(=O)c1ccc2c(c1)OCO2)c1ccc(Cl)cc1Br [Example 2, N-[4-chloro-2-bromobenzoyl]-benzo[1,3]dioxole-5-sulfonamide]
26.2 µM | O=C(NS(=O)(=O)c1ccc2c(c1)CCC2=O)c1ccc(Cl)cc1Cl [Example 29, N-[2,4-dichlorobenzoyl]-1-oxo-indane-5-sulfonamide]
7.5 µM | Cc1cc(Br)ccc1C(=O)NS(=O)(=O)c1ccc2c(c1)OCO2 [Example 4, N-[4-bromo-2-methylbenzoyl]-benzo[1,3]dioxole-5-sulfonamide]
3.2 µM | O=C(NS(=O)(=O)c1ccc2c(c1)CC=C2)c1ccc(Cl)cc1Cl [Example 27, N-[2,4-dichlorobenzoyl]-3H-indene-5-sulfonamide]
2.1 µM | O=C(NS(=O)(=O)c1ccc2c(c1)OCO2)c1ccc(Cl)cc1Cl [Example 25, N-[2,4-dichlorobenzoyl]-benzo[1,3]dioxole-5-sulfonamide]
21.8 µM | O=C(NS(=O)(=O)c1cc2ccccc2s1)c1ccc(Cl)cc1Cl [Example 16, N-[2,4-dichlorobenzoyl]-benzo[b]thiophene-2-sulfonamide]
8.5 µM | Cc1ccc(C(=O)NS(=O)(=O)c2ccc3c(c2)OCO3)c(Br)c1 [Example 5, N-[4-methyl-2-bromobenzoyl]-benzo[1,3]dioxole-5-sulfonamide]
4.6 µM | O=C(NS(=O)(=O)c1ccc2c(c1)OCO2)c1ccc(Br)cc1Br [Example 6, N-[2,4-dibromobenzoyl]-benzo[1,3]dioxole-5-sulfonamide]
